Measurements from patent publication US7390834B2, “Cyanophenoxy carboxylic acid compounds and compositions for delivering active agents” (Emisphere Technologies, Inc., priority 2000, dated 2008).

Experiments:
[1] = Oral and intracolonic delivery of heparin in rats (APTT); format: in vivo, Sprague-Dawley rats; conditions: Heparin Dose 1 mg/kg, maximum of group means, n=5
Procedure: Oral gavage (PO) and intracolonic (IC) dosing solutions containing a delivery agent compound and heparin sodium USP in 25% aqueous propylene glycol were prepared. Either the sodium salt of the delivery agent compound was used or the free acid was converted to the sodium salt with one equivalent of sodium hydroxide. Typically, the delivery agent compound and heparin (about 166-182 IU/mg) were mixed by vortex as dry powders. This dry mixture was dissolved in 25% v/v aqueous propylene glycol, vortexed and placed in a sonicator (about 37° C.). The pH was adjusted to about 7 (6.5 to 8.5) with aqueous NaOH (2N). The dosing solution was sonicated to produce a clear solution. The final volume was adjusted to 3.0 mL. The final delivery agent compound dose, heparin dose and volume dose amounts are listed below in Table 2.
The typical dosing and sampling protocols were as follows. Male Sprague-Dawley rats weighing between 275-350 g were fasted for 24 hours and were anesthetized with ketamine hydrochloride (88 mg/kg) intramuscularly immediately prior to dosing. A dosing group of five rats was administered one of the dosing solutions. For oral gavage (PO) dosing, an 11 cm Rusch 8 French catheter was adapted to a 1 mL syringe with a pipette tip. The syringe was filled with dosing solution by drawing the solution through the catheter, which was then wiped dry. The catheter was placed down the esophagus leaving 1 cm of tubing past the rat's incisors. Solution was administered by pressing the syringe plunger. For intracolonic (IC) dosing, a 7.5 cm 8 fr Rusch catheter was adapted to a 1 ml syringe with a pipette tip. The dosing catheter was inserted into the colon through the anus until the tube was no longer visible. The dosing solution was expressed slowly into the colon.
Citrated blood samples were collected by cardiac puncture following the administration of ketamine (88 mg/kg), typically at time—0.25, 0.5, 1.0 and 1.5 hours. Heparin activity was determined by utilizing the activated partial thromboplastin time (APTT) according to the method of Henry, J. B., Clinical Diagnosis and Management by Laboratory Methods, Philadelphia, Pa., W. B. Saunders (1979). Previous studied indicated baseline values of about 20 sec. Results from the five rats in each group were averaged for each time point. The maximum is reported below in Table 2.

[2] = Oral, as printed: Volume Dose 300 ml/kg, Compound Dose 100 mg/kg

## N#Cc1ccccc1OCCCCCCCCCC(=O)O [Compound 6, 10-(2-cyanophenoxy)decanoic acid]
other
  melting point: 82 to 84 °C

## N#Cc1ccccc1OCCCC(=O)O [Compound 2, 4-(2-cyanophenoxy)butanoic acid]
other
  melting point: 127 to 128 °C

## N#Cc1cc(Cl)ccc1OCCCCC(=O)O [Compound 7, 5-(4-chloro-2-cyanophenoxy)pentanoic acid]
other
  melting point: 87 to 90 °C

## N#Cc1ccc(OCCCCCCCC(=O)O)cc1 [Compound 8, 8-(4-cyanophenoxy)octanoic acid]
other
  melting point: 137 to 140 °C

## N#Cc1ccccc1OCCCCCC(=O)O (hydrate or solvate) [Compound 4, 6-(2-cyanophenoxy)hexanoic acid]
other
  melting point: 77 to 80 °C

## N#Cc1ccccc1OCc1ccc(C(=O)O)cc1 [Compound 9, 4-(2-cyanophenoxymethyl)benzoic acid]
other
  melting point: 199 to 203 °C

## N#Cc1ccccc1OCCCCCCCC(=O)O [Compound 5, 8-(2-cyanophenoxy) octanoic acid]
[1]; IC, as printed: Volume Dose 50 ml/kg, Compound Dose 25 mg/kg
  Mean Peak APTT (sec) ± SD: 80.22 ± 45.70 s
[1]; [2]
  Mean Peak APTT (sec) ± SD: 176.25 ± 175.01 s
other
  melting point: 83 to 85 °C

## N#Cc1ccccc1OCCCCC(=O)O [Compound 3, 5-(2-cyanophenoxy) pentanoic acid]
[1]; IC, as printed: Volume Dose 200 ml/kg, Compound Dose 25 mg/kg
  Mean Peak APTT (sec) ± SD: 16.23 ± 1.23 s
[1]; [2]
  Mean Peak APTT (sec) ± SD: 203.59 ± 72.97 s
other
  melting point: 87 to 89 °C
